Data on twelve compounds can be found in patent US20230226074A1, “METHODS OF USE FOR PYRIMIDINES AS FERROPORTIN INHIBITORS” (Global Blood Therapeutics, Inc., priority 2020, published 2023).

The target of the assay is T1, human ferroportin (Homo sapiens, UniProt Q9NP59).
T1 construct: luciferase reporter (probably NanoLuc, inferred from the Nano-Glo Luciferase Assay System read-out); expressed in transfected cells; host or cells: CHO cells, stably transfected, expression induced with doxycycline
T1 sequence (Q9NP59 1-571): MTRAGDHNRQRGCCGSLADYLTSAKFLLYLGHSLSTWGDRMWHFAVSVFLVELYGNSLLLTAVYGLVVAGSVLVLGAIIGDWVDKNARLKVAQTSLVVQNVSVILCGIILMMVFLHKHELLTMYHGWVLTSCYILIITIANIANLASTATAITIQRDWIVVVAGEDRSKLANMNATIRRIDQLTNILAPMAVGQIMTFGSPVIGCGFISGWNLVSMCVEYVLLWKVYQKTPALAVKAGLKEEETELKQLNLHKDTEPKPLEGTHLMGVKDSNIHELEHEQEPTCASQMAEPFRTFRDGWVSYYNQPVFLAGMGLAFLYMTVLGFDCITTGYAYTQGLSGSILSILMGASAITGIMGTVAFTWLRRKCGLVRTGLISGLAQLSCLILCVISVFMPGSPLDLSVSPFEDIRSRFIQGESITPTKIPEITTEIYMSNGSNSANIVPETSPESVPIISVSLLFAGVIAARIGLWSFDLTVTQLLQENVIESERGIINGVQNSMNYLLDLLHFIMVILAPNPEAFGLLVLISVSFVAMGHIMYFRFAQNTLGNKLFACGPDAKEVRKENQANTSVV
Nature of the assay: In-vitro ferroportin internalization assay (luciferase reporter). The assay is classed as cell-based. The note with it: average pEC50; stably-transfected CHO cell line expressing human ferroportin tagged to a luciferase reporter; 6 h incubation with test compound. As for the experimental part:
The protocol for this assay is generally as described in WO2018/128828, incorporated herein by reference in its entirety. Functional internalization of ferroportin protein was measured using a stably-transfected CHO cell line expressing the human ferroportin tagged to a luciferase reporter. Cells were plated for 24 h in the presence of ferric ammonium citrate (FAC). Ferroportin protein expression was induced with doxycycline for 24 h. The next day, the compounds were added. Test compounds were dissolved in DMSO. Cells were incubated with the test compounds for 6 h, and subsequently luciferase activity was measured using the Nano-Glo Luciferase Assay System and Glomax (Promega, Madison, Wis.). The average pEC50 was determined for the test compounds.
On the technique in general: Reporter assays use an easily measured gene product as a stand-in for the process of interest.

For orientation: pEC50 means the negative decadic logarithm of the EC50, by convention in mol/L. A low value points to a high EC50. Take `CCNC(=O)CN(C)c1nc(-c2ccccn2)nc2sc(-c3ccccc3)cc12` [Compound 240, N-ethyl-2-{methyl[6-phenyl-2-(pyridin-2-yl)thieno[2,3-d]pyrimidin-4-yl]amino}acetamide]: the pEC50 is on record as under 5.0.
As for `COCCNc1nc(-c2ccccn2)nc2sc(C)c(C)c12` [Compound 241, N-(2-methoxyethyl)-5,6-dimethyl-2-(pyridin-2-yl)thieno[2,3-d]pyrimidin-4-amine], the figure is 6.3; as for `Cc1sc2nc(-c3ccccn3)nc(N(C)CC(=O)Nc3cccc(F)c3)c2c1C` [Compound 242, 2-{[5,6-dimethyl-2-(pyridin-2-yl)thieno[2,3-d]pyrimidin-4-yl](methyl)amino}-N-(3-fluorophenyl)acetamide], 7.
With `Cc1sc2nc(-c3ccccn3)nc(NCCNc3ccccn3)c2c1C` [Compound 243, N2-[5,6-dimethyl-2-(pyridin-2-yl)thieno[2,3-d]pyrimidin-4-yl]-N1-(pyridin-2-yl)ethane-1,2-diamine] the figure was 6.4; with `CCN(CCO)c1nc(-c2ccccn2)nc2sc(C)c(-c3ccccc3)c12` [Compound 244, 2-{ethyl[6-methyl-5-phenyl-2-(pyridin-2-yl)thieno[2,3-d]pyrimidin-4-yl]amino}ethan-1-ol], 5.4.
With `CC1CC(=O)NCCN1c1nc(-c2ccccn2)nc2scc(-c3ccccc3)c12` (stereo not drawn) [Compound 245, 7-methyl-1-[5-phenyl-2-(pyridin-2-yl)thieno[2,3-d]pyrimidin-4-yl]-1,4-diazepan-5-one] the figure was 5.5; with `CN(CCCc1n[nH]c(N)c1C#N)c1nc(-c2ccccn2)nc2scc(-c3ccccc3)c12` [Compound 246, 5-amino-3-(3-{methyl[5-phenyl-2-(pyridin-2-yl)thieno[2,3-d]pyrimidin-4-yl]amino}propyl)-1H-pyrazole-4-carbonitrile], 6.2; with `COc1ccc(NC(=O)[C@@H](C(C)C)N(C)c2nc(-c3ccccn3)nc3c2CCC3)cn1` [Compound 315, (2R)-N-(6-methoxypyridin-3-yl)-3-methyl-2-{methyl[2-(pyridin-2-yl)-5H,6H,7H-cyclopenta[d]pyrimidin-4-yl]amino}butanamide], 7.3.
`COc1ccc(NC(=O)CN(C)c2nc(-c3cc4cn[nH]c4cn3)nc3c2CCC3)nc1` [Compound 334, N-(5-methoxypyridin-2-yl)-2-[methyl(2-{1H-pyrazolo[3,4-c]pyridin-5-yl}-5H,6H,7H-cyclopenta[d]pyrimidin-4-yl)amino]acetamide] gave a pEC50 of 7.5.
For the compound `CN(C)CCOc1ccnc(-c2nc3c(c(N(C)CC(=O)NC(C)(C)C)n2)CCC3)c1` [Compound 417, N-tert-butyl-2-[(2-{4-[2-(dimethylamino)ethoxy]pyridin-2-yl}-5H,6H,7H-cyclopenta[d]pyrimidin-4-yl)(methyl)amino]acetamide], the pEC50 is recorded as 7.7.
As for `CN(CC(=O)N1CC2CC(C2)C1)c1nc(-c2cc(OCCO)ccn2)nc2c1CCC2` [Compound 433, 1-{3-azabicyclo[3.1.1]heptan-3-yl}-2-({2-[4-(2-hydroxyethoxy)pyridin-2-yl]-5H,6H,7H-cyclopenta[d]pyrimidin-4-yl}(methyl)amino)ethan-1-one], the pEC50 was 8.1.
With `CN(CC(=O)NC(C)(C)C)c1nc(-c2cc(OC[C@H](O)CO)ccn2)nc2c1CCC2` [Compound 484, N-tert-butyl-2-[(2-{4-[(2R)-2,3-dihydroxypropoxy]pyridin-2-yl}-5H,6H,7H-cyclopenta[d]pyrimidin-4-yl)(methyl)amino]acetamidede] the figure was 7.7.
